# In paper PMC3907829, “Characterization of an Invertebrate-Type Dopamine Receptor of the American Cockroach, Periplaneta americana” (International Journal of Molecular Sciences, 2014):
# “And” between values parts separate entries of the source, which are not always exact repeats. Equal entries are not always repeated. “Also recorded” adds a separate entry of the source. Structures can show the parent of a compound that is named as a salt. Where two headings read alike, the source gives them in different places.
# Key:
# PeaDOP2A receptor [1] = target: T1, PeaDOP2A receptor (Periplaneta americana, UniProt V6DNI7); experiment: cAMP production in HEK 293 cells stably expressing PeaDOP2A; assay type: cell-based; settings: for effect on dopamine-induced increase in [cAMP]i (antagonist, in words): co-incubation with dopamine; for effect on [cAMP]i (agonist, in words): ligand 10 μM
# T1 sequence (V6DNI7 entry or part of it): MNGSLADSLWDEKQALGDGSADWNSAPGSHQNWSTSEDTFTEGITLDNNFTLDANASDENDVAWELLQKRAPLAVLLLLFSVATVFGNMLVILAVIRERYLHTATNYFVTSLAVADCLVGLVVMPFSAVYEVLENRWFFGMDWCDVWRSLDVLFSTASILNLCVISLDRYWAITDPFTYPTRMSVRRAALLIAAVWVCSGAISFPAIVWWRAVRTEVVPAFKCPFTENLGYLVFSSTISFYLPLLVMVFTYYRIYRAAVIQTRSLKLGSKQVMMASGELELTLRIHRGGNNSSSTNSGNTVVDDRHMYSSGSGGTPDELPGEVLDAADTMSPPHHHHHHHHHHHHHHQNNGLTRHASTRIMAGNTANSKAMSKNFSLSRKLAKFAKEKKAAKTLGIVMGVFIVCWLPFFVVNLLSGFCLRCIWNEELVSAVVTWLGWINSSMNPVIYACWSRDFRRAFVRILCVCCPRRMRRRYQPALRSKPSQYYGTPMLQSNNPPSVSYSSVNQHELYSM
# Protocol: Stably transfected cells were selected in the presence of the antibiotic G418 at 0.8 mg/mL. Isolated foci were propagated and analyzed for the expression of PeaDOP2A/B-HA by immunocytochemistry and Western blot analysis with a commercial anti-HA antibody (anti-HA high affinity; Roche, Penzberg, Germany).
# PeaDOP2B receptor [2] = experiment: cAMP production in HEK 293 cells stably expressing PeaDOP2B; assay type: cell-based, Periplaneta americana; settings: for change of intracellular cAMP level: biogenic amines 10 μM
# Protocol: Approximately 8 μg pcPeadop2A/B-HA vector was separately introduced into exponentially growing HEK 293 cells (~4 × 10^5 cells per 5 cm Petri dish; Greiner, Frickenhausen, Germany) by a modified calcium phosphate method. Stably transfected cells were selected in the presence of the antibiotic G418 at 0.8 mg/mL. Isolated foci were propagated and analyzed for the expression of PeaDOP2A/B-HA by immunocytochemistry and Western blot analysis with a commercial anti-HA antibody (anti-HA high affinity; Roche, Penzberg, Germany).
# [3] = target: A. mellifera DOP2 receptor; settings: read-out: EC50 for dopamine-induced cAMP increase; cited from earlier work
# C. felis DOP2 receptor = settings: read-out: EC50 for dopamine-induced cAMP increase; cited from earlier work
# [4] = test system: non-transfected HEK 293 cells; settings: dopamine 1 nM to 10 μM
# Protocol: Assays to determine the ability of PeaDOP2A/B-HA receptors to stimulate adenylyl cyclase activity were performed as described earlier [108]. PeaDOP2A/B-expressing cells were grown in minimal essential medium with GlutaMAX™ (Invitrogen, Karlsruhe, Germany), 10% (v/v) fetal bovine serum, 1% (v/v) non-essential amino acids, and antibiotics (all from Invitrogen, Karlsruhe, Germany). Cells were incubated with ligands for 30 min at 37 °C in the presence of the phosphodiesterase inhibitor isobutylmethylxanthine (IBMX; Sigma, Taufkirchen, Germany; final concentration 100 μM) and lysed by adding 0.5 mL ice-cold ethanol. After 1 h at 4 °C, the lysate was transferred to a reaction tube and lyophilized. The amount of cAMP produced was determined by using the TRK 432 cyclic AMP assay kit (GE Healthcare, Freiburg, Germany).
# [5] = target: Bombyx mori DOP2 receptor; settings: read-out: EC50 for dopamine-induced cAMP increase; cited from earlier work
# [6] = target: D. melanogaster DOP2 receptor; settings: read-out: EC50 for dopamine-induced cAMP increase; cited from earlier work
# PeaDOP2A receptor [7] = target: T1, PeaDOP2A receptor; settings: PeaDOP2A cell line
# PeaDOP2B receptor [8] = settings: PeaDOP2B cell line
# [9] = IC50 for blocking dopamine (300 nM)-induced cAMP increase, antagonist, in the presence of 300 nM dopamine, PeaDOP2A-expressing HEK 293 cells
# [10] = log IC50, antagonist, log of molar IC50 (negative values), in the presence of 300 nM dopamine
# [11] = antagonist, in the presence of 300 nM dopamine, PeaDOP2A-expressing HEK 293 cells, read-out: IC50 for blocking dopamine (300 nM)-induced cAMP increase
# [12] = agonist, HEK 293 cells expressing PeaDOP2A, 30 min, 37 °C, 100 μM IBMX, read-out: EC50 for increasing [cAMP]i
# [13] = agonist, log of molar EC50 (negative values), PeaDOP2A-expressing HEK 293 cells
smiles,measurement,setting,value
"CN(C)CCCN1c2ccccc2Sc2ccc(Cl)cc21 [chlorpromazine, Chlorpromazine hydrochloride]",IC50,PeaDOP2A receptor [1]; [9],2.7 nM
same,"effect on dopamine-induced increase in [cAMP]i (antagonist, in words)",PeaDOP2A receptor [1]; PeaDOP2A-expressing cells,able to counteract the dopamine-induced increase in [cAMP]i fully; also recorded: abolished
same,IC50,PeaDOP2A receptor [1]; [10],2.7 nM
"NCC(O)c1ccc(O)cc1 (racemic) [octopamine, (±)-octopamine hydrochloride]",change of intracellular cAMP level,PeaDOP2B receptor [2],None of the biogenic amines induced a change
same,"effect on [cAMP]i (agonist, in words)",PeaDOP2A receptor [1]; PeaDOP2A-expressing cells,no effect
"Oc1cc2c(cc1O)[C@@H](c1ccccc1)CNCC2 [SKF 38393, R(+)-SKF 38393 hydrochloride]","effect on [cAMP]i (agonist, in words)",PeaDOP2A receptor [1]; PeaDOP2A-expressing cells,does not show any effect
"NCCc1ccc(O)c(O)c1 [dopamine, dopamine hydrochloride]",EC50,[3],2200 nM
same,change of intracellular cAMP level,PeaDOP2B receptor [2],None of the biogenic amines induced a change
same,"effect on [cAMP]i, dose-response",PeaDOP2B receptor [2]; dopamine 1 nM to 10 μM,None of the dopamine concentrations showed an effect; also recorded: does not affect [cAMP]i
same,EC50,C. felis DOP2 receptor,2400 nM
same,"effect on [cAMP]i, dose-response",[4],None of the dopamine concentrations showed an effect
same,EC50,[5],1300 nM
same,EC50,[6],350 nM
same,change in [Ca2+]i upon dopamine incubation,PeaDOP2A receptor [7],Neither PeaDOP2 receptor cause changes in [Ca^2+]i
same,cAMP production,"PeaDOP2A receptor [1]; 10 μM ligand, PeaDOP2A-expressing cells",300 pmol cAMP/mg protein
same,EC50,"PeaDOP2A receptor [1]; EC50 for increasing [cAMP]i, agonist, HEK 293 cells expressing PeaDOP2A, 30 min, 37 °C, 100 μM IBMX",160 nM and 163 nM
same,concentration for maximal stimulation of cAMP synthesis,"PeaDOP2A receptor [1]; PeaDOP2A-expressing cells, dose range 1 nM to 10 μM",≥ 1 µM
same,"effect on [cAMP]i (agonist, in words)",PeaDOP2A receptor [1]; PeaDOP2A-expressing cells,leads to an increase in [cAMP]i
same,EC50,"PeaDOP2A receptor [1]; logEC50, agonist, log of molar EC50 (negative values), PeaDOP2A-expressing HEK 293 cells",166 nM and 163 nM
same,change in [Ca2+]i upon dopamine incubation,PeaDOP2B receptor [8],Neither PeaDOP2 receptor cause changes in [Ca^2+]i
"OCCN1CCN(CC/C=C2/c3ccccc3Sc3ccc(C(F)(F)F)cc32)CC1 [flupentixol, cis(Z)-flupentixol dihydrochloride]",IC50,PeaDOP2A receptor [1]; [11],6.5 nM
"Cl.NCCc1c[nH]c2ccc(O)cc12 [serotonin, 5-hydroxytryptamine hydrochloride]",change of intracellular cAMP level,PeaDOP2B receptor [2],None of the biogenic amines induced a change
same,"effect on [cAMP]i (agonist, in words)",PeaDOP2A receptor [1]; PeaDOP2A-expressing cells,no effect
"NC1CCc2cc(O)c(O)cc2C1 (racemic) [6,7-ADTN, (±)-2-amino-6,7-dihydroxy-1,2,3,4-tetrahydronaphthalene]","effect on [cAMP]i (agonist, in words)",PeaDOP2A receptor [1]; PeaDOP2A-expressing cells,lead to an increase in [cAMP]i; also recorded: mimicked
same,EC50,PeaDOP2A receptor [1]; [12],76.4 nM
same,logEC50,PeaDOP2A receptor [1]; [13],−7.117
"CN1CCc2cc(Cl)c(O)cc2[C@@H](c2ccccc2)C1 [SCH 23390, R(+)-SCH 23390 hydrochloride]","effect on dopamine-induced increase in [cAMP]i (antagonist, in words)",PeaDOP2A receptor [1]; PeaDOP2A-expressing cells,able to counteract the dopamine-induced increase in [cAMP]i fully
same,IC50,PeaDOP2A receptor [1]; [11],1790 nM
same,IC50,"PeaDOP2A receptor [1]; antagonist, log of molar IC50 (negative values), in the presence of 300 nM dopamine, read-out: log IC50 (converted)",1790 nM
"C=CCN1CCc2c(cc(O)c(O)c2Cl)C(c2ccccc2)C1 (racemic) [6-chloro-APB, (±)-6-Chloro-7,8-dihydroxy-3-allyl-1-phenyl-2,3,4,5-tetrahydro-1H-3-benzazepine]","effect on [cAMP]i (agonist, in words)",PeaDOP2A receptor [1]; PeaDOP2A-expressing cells,lead to an increase in [cAMP]i; also recorded: mimicked
same,EC50,PeaDOP2A receptor [1]; [12],382 nM
same,logEC50,PeaDOP2A receptor [1]; [13],−6.418
"CC(C)(C)[C@]1(O)CCN2C[C@H]3c4ccccc4CCc4cccc(c43)[C@@H]2C1 [butaclamol, S(+)-butaclamol hydrochloride]",IC50,PeaDOP2A receptor [1]; [9],326 nM
same,"effect on dopamine-induced increase in [cAMP]i (antagonist, in words)",PeaDOP2A receptor [1]; PeaDOP2A-expressing cells,able to counteract the dopamine-induced increase in [cAMP]i fully
same,IC50,PeaDOP2A receptor [1]; [10],326 nM
"NCCc1c[nH]cn1 [histamine, histamine dihydrochloride]",change of intracellular cAMP level,PeaDOP2B receptor [2],None of the biogenic amines induced a change
same,"effect on [cAMP]i (agonist, in words)",PeaDOP2A receptor [1]; PeaDOP2A-expressing cells,no effect
"CN1CCc2cccc3c2[C@H]1Cc1ccc(O)c(O)c1-3 [apomorphine, apomorphine hydrochloride hemihydrate]","effect on [cAMP]i (agonist, in words)",PeaDOP2A receptor [1]; PeaDOP2A-expressing cells,lead to an increase in [cAMP]i
"Cl.Cl.OCCN1CCN(CCC=C2c3ccccc3Sc3ccc(C(F)(F)F)cc32)CC1 (mixture of isomers) [flupentixol, cis(Z)-flupentixol dihydrochloride]",cAMP as percentage of the value with 300 nM dopamine (=100%),"PeaDOP2A receptor [1]; 10 μM antagonist in the presence of 300 nM dopamine, basal level […]",7.0%
same,"effect on dopamine-induced increase in [cAMP]i (antagonist, in words)",PeaDOP2A receptor [1]; PeaDOP2A-expressing cells,able to counteract the dopamine-induced increase in [cAMP]i fully
same,"effect on dopamine-induced increase in [cAMP]i (antagonist, in words)","PeaDOP2A receptor [1]; PeaDOP2A-expressing cells, listed as cis(Z)-flupentixol",abolished
same,log IC50,"PeaDOP2A receptor [1]; antagonist, log of molar IC50 (negative values), in the presence of 300 nM dopamine",−8.189
"CC(C)C[C@H]1C(=O)N2CCC[C@H]2[C@]2(O)O[C@](NC(=O)[C@@H]3C=C4c5cccc6[nH]c(Br)c(c56)C[C@H]4N(C)C3)(C(C)C)C(=O)N12 [bromocriptine, bromocriptine mesylate]","effect on [cAMP]i (agonist, in words)",PeaDOP2A receptor [1]; PeaDOP2A-expressing cells,fails to increase [cAMP]i
"NCCc1ccc(O)cc1 [tyramine, tyramine hydrochloride]",change of intracellular cAMP level,PeaDOP2B receptor [2],None of the biogenic amines induced a change
same,"effect on [cAMP]i (agonist, in words)",PeaDOP2A receptor [1]; PeaDOP2A-expressing cells,no effect
